# Values quoted from earlier work as cited in paper PMC10904332 (Science (New York, N.Y.), 2022).
# Settings: known resistance mechanisms
substance,measurement,value
bacitracin,MIC increase from resistance mechanisms,> 254 fold
